The source of these data is US20230241061A1, “METHODS AND PHARMACEUTICAL COMPOSITIONS FOR THE TREATMENT OF FGFR3-RELATED COGNITIVE DEFICIT” (INSERM (INSTITUT NATIONAL DE LA SANTÉ ET DE LA RECHERCHE …, priority 2020, published 2023).

“Also recorded” adds a separate entry of the source.

Assay [1] concerns Fgfr3^Asn534Lys/+ mice. The assay can be described thus: Novel object location (NOL) in HCH mouse model. It is filed as in vivo. The note with it: 4 months old male Fgfr3^Asn534Lys/+ mice, daily subcutaneous 2 mg/kg for six days, p= 0.9538 vs control littermates, FIG. 3A. As for the experimental part:
FIG. 3: Learning impairment is reverse by FGFR3 tyrosine kinase inhibitor daily subcutaneous injection of BGJ398. A. Novel object location (NOL) was performed in 4 months old male animals. Discrimination index was measured 24 h after training phase to assess memory performance of Fgfr3Asn534Lys/+ and their control littermates. B. Novel object recognition (NOR) was performed in 4 months old male animals. Discrimination index was measured 24 h after training phase to assess memory performance of Fgfr3Asn534Lys/+ + BGJ398, Fgfr3Asn534Lys/+ and their control littermates. NOR and NOL were performed on two independent groups of Fgfr3Asn534Lys/+ (n=12) Fgfr3Asn534Lys/+ + BGJ398 (n=14) and their controls (n=14).
(§1) BGJ398 was purchased from LC Laboratories, Woburn, MA, USA. […]
For the novel object location task, all procedures were identical to the novel object recognition task except that during the testing phase, rather than presenting a novel object, mice encountered both familiar objects, with one object located in a different place in the arena. The time and frequency of exploration of the novel/relocated object is measured as an index of memory. Behavior was scored on videos by two observers blind to treatment and the total exploration time of the objects was quantified in the testing phases.

Assay [2] deals with Fgfr3^Asn534Lys/+ mice. The assay can be described thus: Novel object recognition (NOR) in HCH mouse model. The class given is in vivo. As to conditions: 4 months old male Fgfr3^Asn534Lys/+ mice, daily subcutaneous 2 mg/kg for six days, p= 0.8697 vs control littermates, FIG. 3B. How it is done: FIG. 3: Learning impairment is reverse by FGFR3 tyrosine kinase inhibitor daily subcutaneous injection of BGJ398. A. Novel object location (NOL) was performed in 4 months old male animals. Discrimination index was measured 24 h after training phase to assess memory performance of Fgfr3Asn534Lys/+ and their control littermates. B. Novel object recognition (NOR) was performed in 4 months old male animals. Discrimination index was measured 24 h after training phase to assess memory performance of Fgfr3Asn534Lys/+ + BGJ398, Fgfr3Asn534Lys/+ and their control littermates. […]
(§2) We used a modified version of the NOR task as described in Glatigny et al., 2019. […] The testing room was lit with two 60-W light bulbs and behavior sessions were recorded with a camera above the testing arena (grey plastic box (60 × 40 × 32 cm)). […] The objects elicited equal levels of exploration as determined in pilot experiments and training phase. […]
The following behaviors were considered as exploration of the objects: sniffing, licking, or touching the object with the nose or with the front legs or directing the nose to the object at a distance ≤ 1 cm. Investigation was not scored if the mouse was on top of the object or completely immobile. The discrimination index was calculated as (time spent exploring the new object - time spent exploring the familiar object) / (total time spent exploring both objects). […]

Assay [3] has as its system FGFR3 related Achondroplasia mouse model. The note with it: subcutaneous injections, Komla-Ebri et al. 2016; cited from earlier work.
For assay [4], the target named is T1, FGFR3 (Mus musculus, UniProt Q61851, A385E).
T1 construct: from tissue; host or cells: brain (hippocampus) of Fgfr3^A385E/+ knock-in mice
Kind of assay: FGFR3 overactivation in the brain of CAN mouse model. The class given is in vivo. As to conditions: Fgfr3^A385E/+ mice.

For assay [5], the system named is Fgfr3^A385E/+ mice. Kind of assay: Forced swim test (FST) in CAN mouse model. It is filed as in vivo. The note with it: 4-month-old male Fgfr3^A385E/+ mice, daily intra-cerebro-ventricular injections for 7 days, test 1 hour after last injection, FIG. 2D. As for the experimental part:
(§3) A. Local daily intracerebroventricular injection with either BGJ398 or vehicle in 4 month-old male animals during 7 days. NOR training session occurred 1 hour after last injection B. NOR performed on groups injected with vehicle or BGJ398. Injection and NOR were performed on two independent groups with the three conditions each (Fgfr3^+/+ + vehicle, n=15; Fgfr3^A385E/+ + vehicle, n=14; Fgfr3^A385E/+ + BGJ398, n=14. C. Local daily intracerebroventricular injection with either BGJ398 or vehicle in 4 month-old male animals during 7 days. One FST testing session occurring 1 hour after last injection. Immobility duration was assessed during testing. D. FST performed on groups injected with vehicle or BGJ398. Injection and FST were performed on two independent groups with the three conditions each (Fgfr3^+/+ + vehicle, n=15; Fgfr3^A385E/+ + vehicle, n=14; Fgfr3^A385E/+ + BGJ398, n=14). *P<0.05 **P<0.01, ***P<0.001.NS Not significant by ANOVA with Tukey’s multiple comparisons post-test and Student’s unpaired t test.
as §1
This test is based on a similar observation than the TST. […] Mice were tested for 5 min, and the time spent immobile (behavioral despair) was quantified.

Assay [6] has as its target FGFR3 (Homo sapiens, UniProt P22607). The note with it: reason given for selecting the inhibitor; cited from earlier work.
The test system of assay [7] is Fgfr3^A385E/+ mice. Kind of assay: Novel object recognition (NOR) in CAN mouse model. It is filed as in vivo. As to conditions: 4-month-old male Fgfr3^A385E/+ mice, daily intra-cerebro-ventricular injections for 7 days, compared to control littermates, FIG. 2B. As for the experimental part:
as §3, with “test. […]” for “test.”
as §2

FGFR3 (Homo sapiens, UniProt P22607), sequence (P22607 23-806, species assumed): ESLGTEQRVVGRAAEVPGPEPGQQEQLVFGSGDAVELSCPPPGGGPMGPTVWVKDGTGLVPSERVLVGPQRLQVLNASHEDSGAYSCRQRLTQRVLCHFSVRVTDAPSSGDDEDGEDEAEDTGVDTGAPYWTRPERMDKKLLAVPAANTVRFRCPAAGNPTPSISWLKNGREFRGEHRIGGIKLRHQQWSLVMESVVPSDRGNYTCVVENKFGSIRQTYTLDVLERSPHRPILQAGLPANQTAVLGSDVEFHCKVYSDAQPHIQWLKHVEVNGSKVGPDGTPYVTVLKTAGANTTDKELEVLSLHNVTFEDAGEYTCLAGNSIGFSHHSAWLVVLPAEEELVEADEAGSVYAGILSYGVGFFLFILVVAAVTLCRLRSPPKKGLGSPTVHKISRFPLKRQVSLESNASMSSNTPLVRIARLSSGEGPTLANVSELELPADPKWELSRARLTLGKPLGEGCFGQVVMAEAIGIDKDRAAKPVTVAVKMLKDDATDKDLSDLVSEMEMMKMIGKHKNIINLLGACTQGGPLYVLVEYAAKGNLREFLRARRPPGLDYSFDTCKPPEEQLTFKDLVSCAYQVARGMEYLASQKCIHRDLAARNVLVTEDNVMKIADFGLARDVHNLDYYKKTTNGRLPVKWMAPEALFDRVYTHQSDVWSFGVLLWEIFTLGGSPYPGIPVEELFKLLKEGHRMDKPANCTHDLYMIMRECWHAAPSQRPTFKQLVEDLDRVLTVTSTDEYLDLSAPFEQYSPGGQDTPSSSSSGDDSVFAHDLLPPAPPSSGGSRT
T1 sequence (Q61851 21-801 A385E): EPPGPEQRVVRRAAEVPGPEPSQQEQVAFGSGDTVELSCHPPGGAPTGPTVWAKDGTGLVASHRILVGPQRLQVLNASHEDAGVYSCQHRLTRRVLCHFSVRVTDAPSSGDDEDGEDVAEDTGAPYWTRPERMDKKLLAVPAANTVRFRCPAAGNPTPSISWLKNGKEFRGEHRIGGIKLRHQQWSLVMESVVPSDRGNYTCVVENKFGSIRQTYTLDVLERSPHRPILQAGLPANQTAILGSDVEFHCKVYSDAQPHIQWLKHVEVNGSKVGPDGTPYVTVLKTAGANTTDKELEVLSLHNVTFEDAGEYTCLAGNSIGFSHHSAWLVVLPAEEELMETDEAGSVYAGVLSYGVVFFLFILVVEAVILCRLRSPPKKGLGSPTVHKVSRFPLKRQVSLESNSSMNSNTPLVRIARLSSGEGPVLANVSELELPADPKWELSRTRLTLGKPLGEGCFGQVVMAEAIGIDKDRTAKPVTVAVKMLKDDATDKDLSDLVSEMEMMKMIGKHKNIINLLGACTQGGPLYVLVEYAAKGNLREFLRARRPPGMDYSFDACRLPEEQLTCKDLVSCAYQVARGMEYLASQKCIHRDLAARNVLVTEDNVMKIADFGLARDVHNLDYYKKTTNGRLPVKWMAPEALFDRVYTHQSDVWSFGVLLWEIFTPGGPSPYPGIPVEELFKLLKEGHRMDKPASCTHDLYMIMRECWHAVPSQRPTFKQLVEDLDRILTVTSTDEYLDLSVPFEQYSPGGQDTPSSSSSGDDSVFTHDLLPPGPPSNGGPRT

In the case of `CCN1CCN(c2ccc(Nc3cc(N(C)C(=O)Nc4c(Cl)c(OC)cc(OC)c4Cl)ncn3)cc2)CC1` [BGJ398, 3-(2,6-dichloro-3,5-dimethoxyphenyl)-1-[6-[4-(4-ethylpiperazin-1-yl)anilino]pyrimidin-4-yl]-1-methylurea], in the assay with Fgfr3^Asn534Lys/+ mice [1], the “spatial memory deficit (NOL), exploration of the relocated object” value is reported as “sufficient to restore the spatial (NOL)”. Besides, the “episodic memory deficit (NOR), exploration of the novel object” value in the assay on Fgfr3^Asn534Lys/+ mice [2] is “to the same levels than control littermates”. In addition, in assay [3], the FGFR3 over-activation result is “abolished the FGFR3 over-activation” and the “chondrodysplasia phenotype / skeletal anomalies” value is “rescued the chondrodysplasia phenotype; also recorded: efficacy of BGJ398 in skeletal anomalies”. Moreover, the “FGFR3 overactivation in the brain” value on FGFR3 [4] is given as “inhibited the FGFR3 overactivation in the brain”. Further, in the assay with Fgfr3^A385E/+ mice [5], the “coping strategy to an inescapable stress in the FST (immobility duration)” value was “reestablished the coping strategy to an inescapable stress”. For the same compound, at FGFR3 [6], the “binding specificity for FGFR3” value is “highest binding specificity for FGFR3”. Besides, the “memory deficits in the NOR paradigm (discrimination index)” value in the assay with Fgfr3^A385E/+ mice [7] is given as “reversed the memory deficits”.
